# Laboratory results reported in patent publication US9480259B2, “Pyrazolopyrans having herbicidal and pharmaceutical properties” (BASF SE, priority 2012, dated 2016).
# Target: Arabidopsis thaliana SHMT
# Test: SHMT activity assay (ED50 SHMT), coupled with N5,N10-CH2-THF dehydrogenase, NADH at 340 nm
# Type: biochemical
# Procedure, shortened: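 His-tagged SHMT purified on Ni-NTA. NADH formation followed at 340 nm for 30 min; ED50 from inhibition of initial velocity.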
# [1] = Table 2, values given as upper bounds
# [2] = Table 2, Arabidopsis thaliana SHMT enzyme assay, values given as upper bounds
# [3] = inhibition of initial velocity of Arabidopsis thaliana SHMT
# [4] = Arabidopsis thaliana SHMT enzyme assay, values given as upper bounds
SMILES,EC50 [1],also measured
CCC1(c2cc(F)c(O)c(F)c2)C(C#N)=C(N)Oc2[nH]nc(C)c21 (stereo not drawn) [Compound 2.34.],< 10000 nM,–
Cc1n[nH]c2c1C(c1cc(Cl)cc(-c3ccc(NS(=O)(=O)C(F)(F)F)cc3)c1)(C1CCC1)C(C#N)=C(N)O2 (stereo not drawn) [Compound 2.595],< 10 nM,–
COc1ccc(C2(C3CCC3)C(C#N)=C(N)Oc3[nH]ncc32)cc1Br (stereo not drawn) [Compound 2.255],–,EC50 [2]: < 10 nM
CCCC1(c2cc(Br)cc(C#N)c2)C(C#N)=C(N)Oc2[nH]nc(OC)c21 (stereo not drawn) [Compound 2.603],< 1000 nM,–
Cc1n[nH]c2c1C(c1ccc(-c3ccsc3)s1)(C1CCC1)C(C#N)=C(N)O2 (racemic) [Compound 4.21],–,EC50 [3]: < 10 nM
CCC1(c2cc(C(F)(F)F)cc(C(F)(F)F)c2)C(C#N)=C(N)Oc2[nH]nc(C)c21 (stereo not drawn) [Compound 2.47.],< 100 nM,–
COc1n[nH]c2c1C(c1cc(Cl)cc(Cl)c1)(C1CCC1)C(C#N)=C(N)O2 (stereo not drawn) [Compound 2.386],–,EC50 [2]: < 10 nM
COC(=O)c1ccc(-c2cc(C#N)cc(C3(C4CCC4)C(C#N)=C(N)Oc4[nH]nc(C)c43)c2)cc1C(=O)OC (stereo not drawn) [Compound 2.550],< 10 nM,–
Cc1n[nH]c2c1C(c1cc(Cl)cc(N(C)C(=O)Cc3nnn[nH]3)c1)(C1CCC1)C(C#N)=C(N)O2 (stereo not drawn) [Compound 2.699],–,EC50 [4]: < 100 nM
CCc1n[nH]c2c1C(CC)(c1cc(Cl)cc(Cl)c1)C(C#N)=C(N)O2 (stereo not drawn) [Compound 2.109.],< 1000 nM,–
C#CCCC1(c2cc(Cl)cc(Cl)c2)C(C#N)=C(N)Oc2[nH]nc(C)c21 (stereo not drawn) [Compound 2.314],–,EC50 [2]: < 100 nM
Cc1n[nH]c2c1C(c1cc(C#N)cc(C#N)c1)(C1CC1)C(C#N)=C(N)O2 (stereo not drawn) [Compound 2.366],–,EC50 [2]: < 10 nM
Cc1n[nH]c2c1C(c1cc(Cl)cc(Oc3ccc(Cl)cc3)c1)(C1CC1)C(C#N)=C(N)O2 (racemic) [Compound 2.342],–,EC50 [2]: < 10 nM
CCC1(c2ccc(OS(=O)(=O)c3ccc(Cl)cc3)c(C)c2)C(C#N)=C(N)Oc2[nH]nc(C)c21 (stereo not drawn) [Compound 2.57.],< 10000 nM,–
Cc1n[nH]c2c1C(c1cc(C#N)cc(-c3cc(C(=O)O)co3)c1)(C1CCC1)C(C#N)=C(N)O2 (stereo not drawn) [Compound 2.684],–,EC50 [4]: < 10 nM
Cc1n[nH]c2c1C(c1cc(Br)cc(OCC(=O)O)c1)(C1(F)CC1)C(C#N)=C(N)O2 (stereo not drawn) [Compound 2.503],< 10000 nM,–
CCC1(c2cc(C#N)cc(C(F)(F)F)c2)C(C#N)=C(N)Oc2[nH]nc(COC)c21 (stereo not drawn) [Compound 2.588],< 100 nM,–
CCOC(=O)CCCN(C)c1cc(C#N)cc(C2(C3CCC3)C(C#N)=C(N)Oc3[nH]nc(C)c32)c1 (stereo not drawn) [Compound 2.658],–,EC50 [4]: < 10 nM
Cc1n[nH]c2c1C(c1cc(C#N)cc(-c3cccc(C(=O)O)c3)c1)(C1(F)COC1)C(C#N)=C(N)O2 (stereo not drawn) [Compound 2.656],–,EC50 [4]: < 10 nM
Cc1n[nH]c2c1C(c1cc(Br)cc(Br)c1)(C1CCC1)C(C#N)=C(N)O2 (stereo not drawn) [Compound 2.232],–,EC50 [2]: < 10 nM
COC(=O)c1csc(C2(C3CCC3)C(C#N)=C(N)Oc3[nH]nc(C)c32)c1 (stereo not drawn) [Compound 4.30],–,EC50 [3]: < 10 nM
COc1cccc(Oc2cc(Cl)cc(C3(C4CCC4)C(C#N)=C(N)Oc4[nH]nc(C)c43)c2)c1 (stereo not drawn) [Compound 2.238],–,EC50 [2]: < 10 nM
COC(=O)c1cc(-c2cc(C#N)cc(C3(C4CCC4)C(C#N)=C(N)Oc4[nH]nc(C)c43)c2)cc(C(F)(F)F)c1 (stereo not drawn) [Compound 2.552],< 100 nM,–
CCC1(c2ccc(OC)cc2)C(C#N)=C(N)Oc2[nH]nc(C)c21 (stereo not drawn) [Compound 2.22.],< 1000 nM,–
CCOc1n[nH]c2c1C(c1cc(Br)cc(C#N)c1)(C1CCC1)C(C#N)=C(N)O2 (stereo not drawn) [Compound 2.389],–,EC50 [2]: < 10 nM
CCC1(c2ccc(Oc3ccc(C(F)(F)F)cc3Cl)c(C)c2)C(C#N)=C(N)Oc2[nH]nc(C)c21 (stereo not drawn) [Compound 2.23.],< 10000 nM,–

SMILES,EC50 [1],also measured
CCCC1(c2cc(Br)cc(C#N)c2)C(C#N)=C(N)Oc2[nH]nc(CC)c21 (stereo not drawn) [Compound 2.578],< 100 nM,–
COc1n[nH]c2c1C(c1cc(Br)cc(C#N)c1)(C1(F)CC1)C(C#N)=C(N)O2 (stereo not drawn) [Compound 2.394],–,EC50 [2]: < 100 nM
CCCCC1(c2cccc(Cl)c2)C(C#N)=C(N)Oc2[nH]nc(C)c21 (racemic) [Compound 2.91.],< 10000 nM,–
CCCC1(c2cc(C#N)cc(C#N)c2)C(C#N)=C(N)Oc2[nH]nc(C(C)C)c21 (stereo not drawn) [Compound 2.586],< 1000 nM,–
CCC1(c2cc(C(F)(F)F)cc(C(F)(F)F)c2)C(C#N)=C(N)Oc2[nH]ncc21 (stereo not drawn) [Compound 2.64.],< 1000 nM,–
CCCC1(c2cc(Cl)cc(C#N)c2)C(C#N)=C(N)Oc2[nH]nc(COC)c21 (stereo not drawn) [Compound 2.591],< 10000 nM,–
Cc1n[nH]c2c1C(c1cc(-c3cccc(F)c3)cs1)(C1CC1)C(C#N)=C(N)O2 (stereo not drawn) [Compound 4.60],–,EC50 [3]: < 100 nM
CC(C)C1(c2cc(Cl)cc(Cl)c2)C(C#N)=C(N)Oc2[nH]nc(C3CC3)c21 (stereo not drawn) [Compound 2.136.],< 100 nM,–
CCC1(c2ccc(Oc3ccccc3)cc2)C(C#N)=C(N)Oc2[nH]nc(C(C)C)c21 (racemic) [Compound 2.160.],< 10000 nM,–
Cc1n[nH]c2c1C(c1cc(Cl)cc(N(C)C(=O)CCC#N)c1)(C1CCC1)C(C#N)=C(N)O2 (stereo not drawn) [Compound 2.697],–,EC50 [4]: < 100 nM
COC(=O)c1ccc(-c2cc(C#N)cc(C3(C4CCC4)C(C#N)=C(N)Oc4[nH]nc(OC)c43)c2)cc1 (stereo not drawn) [Compound 2.454],< 1000 nM,–
Cc1n[nH]c2c1C(c1cc(Cl)cc(Oc3ccccc3F)c1)(C1CCC1)C(C#N)=C(N)O2 (stereo not drawn) [Compound 2.235],–,EC50 [2]: < 10 nM
CCCc1n[nH]c2c1C(CC)(c1cc(C(F)(F)F)cc(C(F)(F)F)c1)C(C#N)=C(N)O2 (stereo not drawn) [Compound 2.83.],< 1000 nM,–
CCC1(c2cccc(C(F)(F)F)c2)C(C#N)=C(N)Oc2[nH]nc(C)c21 (stereo not drawn) [Compound 2.31.],< 1000 nM,–
N#CC1=C(N)Oc2[nH]ncc2C1(c1cc(Br)cc(C#N)c1)C1CC=CC1 (stereo not drawn) [Compound 2.376],–,EC50 [2]: < 10 nM
Cc1n[nH]c2c1C(c1ccc(-c3ccccc3C(F)(F)F)s1)(C1CCC1)C(C#N)=C(N)O2 (stereo not drawn) [Compound 4.34],–,EC50 [3]: < 10 nM
CCCC1(c2cc(Br)cc(C#N)c2)C(C#N)=C(N)Oc2[nH]nc(C(F)F)c21 (stereo not drawn) [Compound 2.609],< 100 nM,–
CCCc1n[nH]c2c1C(CC)(c1cc(Cl)cc(Cl)c1)C(C#N)=C(N)O2 (stereo not drawn) [Compound 2.110.],< 1000 nM,–
Cc1n[nH]c2c1C(c1cc(Cl)cc(C#N)c1)(C(C)C)C(C#N)=C(N)O2 (stereo not drawn) [Compound 2.345],–,EC50 [2]: < 10 nM
COc1c(F)cc(-c2ccc(C3(C4CCC4)C(C#N)=C(N)Oc4[nH]nc(C)c43)s2)cc1F (stereo not drawn) [Compound 4.50],–,EC50 [3]: < 100 nM
CCC1(c2cc(F)cc(C(F)(F)F)c2)C(C#N)=C(N)Oc2[nH]nc(C)c21 (stereo not drawn) [Compound 2.33.],< 100 nM,–
Cc1n[nH]c2c1C(c1cc(C(=O)O)cs1)(C1CCC1)C(C#N)=C(N)O2 (stereo not drawn) [Compound 4.66],–,EC50 [3]: < 1000 nM
CCC1(c2ccc(OC(F)F)cc2)C(C#N)=C(N)Oc2[nH]nc(C)c21 (stereo not drawn) [Compound 2.32.],< 10000 nM,–
Cc1n[nH]c2c1C(c1cc(C#N)cc(N(C)C(=O)CCCC#N)c1)(C1CCC1)C(C#N)=C(N)O2 (stereo not drawn) [Compound 2.659],–,EC50 [4]: < 10 nM
Cc1n[nH]c2c1C(c1cc(C#N)cc(-c3cccc(C(=O)O)c3)c1)(C1(F)CC1)C(C#N)=C(N)O2 (stereo not drawn) [Compound 2.510],< 10 nM,–
Cc1n[nH]c2c1C(c1cc(Cl)cc(-c3cccnc3)c1)(C1CCC1)C(C#N)=C(N)O2 (stereo not drawn) [Compound 2.324],–,EC50 [2]: < 10 nM

# The next lines start with results.
EC50 [1],SMILES,also measured
< 10 nM,Cc1n[nH]c2c1C(c1cc(C#N)cc(-c3ccc(C(=O)O)c(Cl)c3)c1)(C1CCC1)C(C#N)=C(N)O2 (stereo not drawn) [Compound 2.562],–
< 10 nM,Cc1n[nH]c2c1C(c1cc(Cl)cc(-c3cccc(C#N)c3)c1)(C1CCC1)C(C#N)=C(N)O2 (stereo not drawn) [Compound 2.512],–
< 100 nM,CCc1n[nH]c2c1C(c1cc(Cl)cc(Cl)c1)(C1CCC1)C(C#N)=C(N)O2 (stereo not drawn) [Compound 2.155.],–
< 1000 nM,COc1ccc(C2(C3CCCC3)C(C#N)=C(N)Oc3[nH]nc(C)c32)cc1Cl (stereo not drawn) [Compound 2.203.],–
< 10 nM,Cc1n[nH]c2c1C(c1cc(C#N)cc(OCC#N)c1)(C1CCC1)C(C#N)=C(N)O2 (stereo not drawn) [Compound 2.471],–
< 10 nM,CCCCC(=O)N(C)c1cc(C#N)cc(C2(C3CCC3)C(C#N)=C(N)Oc3[nH]nc(C)c32)c1 (stereo not drawn) [Compound 2.614],–
< 100 nM,CCC1(c2ccc(Br)c(Cl)c2)C(C#N)=C(N)Oc2[nH]nc(C)c21 (stereo not drawn) [Compound 2.472],–
< 100 nM,COC(=O)c1ccc(-c2cc(Cl)cc(C3(C4CCC4)C(C#N)=C(N)Oc4[nH]nc(C)c43)c2)cc1 (stereo not drawn) [Compound 2.458],–
< 100 nM,N#CC1=C(N)Oc2[nH]nc(C3CC3)c2C1(c1cc(Cl)cc(Cl)c1)C1CCC1 (racemic) [Compound 2.156.],–
< 10 nM,Cc1n[nH]c2c1C(c1cc(Cl)cc(Cc3nnn[nH]3)c1)(C1CCC1)C(C#N)=C(N)O2 (stereo not drawn) [Compound 2.570],–
< 10 nM,Cc1n[nH]c2c1C(c1cc(Cl)cc(Oc3cc(F)c(O)c(F)c3)c1)(C1CCC1)C(C#N)=C(N)O2 (stereo not drawn) [Compound 2.596],–
< 10 nM,Cc1n[nH]c2c1C(c1cccc(C(F)(F)F)c1)(C1CCCC1)C(C#N)=C(N)O2 (stereo not drawn) [Compound 2.213.],–
< 10 nM,Cc1n[nH]c2c1C(c1cc(Cl)cc(OCCC(=O)O)c1)(C1CCC1)C(C#N)=C(N)O2 (racemic) [Compound 2.505],–
< 10 nM,Cc1n[nH]c2c1C(c1cc(C#N)cc(N(C)C(=O)CCC(=O)O)c1)(C1CCC1)C(C#N)=C(N)O2 (stereo not drawn) [Compound 2.632],–
